# Results as given in the NIST ThermoML archive (doi:10.1021/je300873x).
# ± gives the expanded uncertainty stated by the source.
# Experiment: mn = molality of the nth substance listed, in mol/kg
# Settings: for surface tension liquid-gas: Pendant drop shape; for electrical conductivity: Liquid, Digital conductivity meter
compound,measurement,setting,value
CCCCCCCCCCCC[N+](C)(C)CCO.[Br-] [dodecyl(2-hydroxyethyl)dimethylammonium bromide] + O,surface tension liquid-gas,"298.15 K, m1 = 0.001",68.12 ± 0.61 mN/m
same,surface tension liquid-gas,"298.15 K, m1 = 0.00201",63.05 ± 0.57 mN/m
same,surface tension liquid-gas,"298.15 K, m1 = 0.00402",54.51 ± 0.5 mN/m
same,surface tension liquid-gas,"298.15 K, m1 = 0.00602",49.15 ± 0.46 mN/m
same,surface tension liquid-gas,"298.15 K, m1 = 0.00803",45.74 ± 0.43 mN/m
same,surface tension liquid-gas,"298.15 K, m1 = 0.01004",42.61 ± 0.41 mN/m
same,surface tension liquid-gas,"298.15 K, m1 = 0.01205",39.74 ± 0.39 mN/m
same,surface tension liquid-gas,"298.15 K, m1 = 0.01305",38.84 ± 0.38 mN/m
same,surface tension liquid-gas,"298.15 K, m1 = 0.01506",38.78 ± 0.38 mN/m
same,surface tension liquid-gas,"298.15 K, m1 = 0.01707",38.7 ± 0.38 mN/m
same,surface tension liquid-gas,"298.15 K, m1 = 0.02009",38.51 ± 0.38 mN/m
same,surface tension liquid-gas,"298.15 K, m1 = 0.03014",38.4 ± 0.38 mN/m
same,surface tension liquid-gas,"298.15 K, m1 = 0.05027",38.38 ± 0.38 mN/m
same,electrical conductivity,"298.15 K, m1 = 0.00949",0.0809 ± 0.0001 S/m
same,electrical conductivity,"298.15 K, m1 = 0.00996",0.0847 ± 0.0001 S/m
same,electrical conductivity,"298.15 K, m1 = 0.01049",0.0889 ± 0.0001 S/m
same,electrical conductivity,"298.15 K, m1 = 0.01107",0.0935 ± 0.0001 S/m
same,electrical conductivity,"298.15 K, m1 = 0.01172",0.0987 ± 0.0001 S/m
same,electrical conductivity,"298.15 K, m1 = 0.01246",0.1047 ± 0.0001 S/m
same,electrical conductivity,"298.15 K, m1 = 0.01286",0.1079 ± 0.0001 S/m
same,electrical conductivity,"298.15 K, m1 = 0.01329",0.111 ± 0.0001 S/m
same,electrical conductivity,"298.15 K, m1 = 0.01375",0.1138 ± 0.0001 S/m
same,electrical conductivity,"298.15 K, m1 = 0.01424",0.116 ± 0.0001 S/m
same,electrical conductivity,"298.15 K, m1 = 0.01476",0.1177 ± 0.0001 S/m
same,electrical conductivity,"298.15 K, m1 = 0.01533",0.1196 ± 0.0001 S/m
same,electrical conductivity,"298.15 K, m1 = 0.01595",0.121 ± 0.0001 S/m
same,electrical conductivity,"298.15 K, m1 = 0.01661",0.1226 ± 0.0001 S/m
same,electrical conductivity,"298.15 K, m1 = 0.01733",0.1248 ± 0.0001 S/m
same,electrical conductivity,"298.15 K, m1 = 0.01812",0.1264 ± 0.0001 S/m
same,electrical conductivity,"298.15 K, m1 = 0.01899",0.1281 ± 0.0001 S/m
same,electrical conductivity,"298.15 K, m1 = 0.01994",0.1302 ± 0.0001 S/m
same,electrical conductivity,"303.15 K, m1 = 0.00945",0.0886 ± 0.0001 S/m
same,electrical conductivity,"303.15 K, m1 = 0.00992",0.093 ± 0.0001 S/m
same,electrical conductivity,"303.15 K, m1 = 0.01045",0.0974 ± 0.0001 S/m
same,electrical conductivity,"303.15 K, m1 = 0.01103",0.1025 ± 0.0001 S/m
same,electrical conductivity,"303.15 K, m1 = 0.01168",0.1068 ± 0.0001 S/m
same,electrical conductivity,"303.15 K, m1 = 0.01241",0.1148 ± 0.0001 S/m
same,electrical conductivity,"303.15 K, m1 = 0.01281",0.1182 ± 0.0001 S/m
same,electrical conductivity,"303.15 K, m1 = 0.01324",0.1212 ± 0.0001 S/m
same,electrical conductivity,"303.15 K, m1 = 0.01369",0.1246 ± 0.0001 S/m
same,electrical conductivity,"303.15 K, m1 = 0.01418",0.128 ± 0.0001 S/m
same,electrical conductivity,"303.15 K, m1 = 0.01471",0.1306 ± 0.0001 S/m
same,electrical conductivity,"303.15 K, m1 = 0.01527",0.1326 ± 0.0001 S/m
same,electrical conductivity,"303.15 K, m1 = 0.01589",0.1346 ± 0.0001 S/m
same,electrical conductivity,"303.15 K, m1 = 0.01655",0.1364 ± 0.0001 S/m
same,electrical conductivity,"303.15 K, m1 = 0.01727",0.1386 ± 0.0001 S/m
same,electrical conductivity,"303.15 K, m1 = 0.01805",0.1407 ± 0.0001 S/m
same,electrical conductivity,"303.15 K, m1 = 0.01892",0.1431 ± 0.0001 S/m
same,electrical conductivity,"303.15 K, m1 = 0.01986",0.1451 ± 0.0001 S/m
same,electrical conductivity,"308.15 K, m1 = 0.00993",0.1022 ± 0.0001 S/m
same,electrical conductivity,"308.15 K, m1 = 0.01046",0.1072 ± 0.0001 S/m
same,electrical conductivity,"308.15 K, m1 = 0.01104",0.112 ± 0.0001 S/m
same,electrical conductivity,"308.15 K, m1 = 0.01169",0.1179 ± 0.0001 S/m
same,electrical conductivity,"308.15 K, m1 = 0.01242",0.1251 ± 0.0001 S/m
same,electrical conductivity,"308.15 K, m1 = 0.01282",0.1293 ± 0.0001 S/m
same,electrical conductivity,"308.15 K, m1 = 0.01325",0.1334 ± 0.0001 S/m
same,electrical conductivity,"308.15 K, m1 = 0.0137",0.1371 ± 0.0001 S/m
same,electrical conductivity,"308.15 K, m1 = 0.01419",0.1408 ± 0.0001 S/m
same,electrical conductivity,"308.15 K, m1 = 0.01472",0.1443 ± 0.0001 S/m
same,electrical conductivity,"308.15 K, m1 = 0.01529",0.1472 ± 0.0001 S/m
same,electrical conductivity,"308.15 K, m1 = 0.0159",0.1496 ± 0.0001 S/m
same,electrical conductivity,"308.15 K, m1 = 0.01656",0.152 ± 0.0001 S/m
same,electrical conductivity,"308.15 K, m1 = 0.01728",0.1541 ± 0.0001 S/m
same,electrical conductivity,"308.15 K, m1 = 0.01807",0.1567 ± 0.0001 S/m
same,electrical conductivity,"308.15 K, m1 = 0.01893",0.1595 ± 0.0001 S/m
same,electrical conductivity,"308.15 K, m1 = 0.01987",0.1621 ± 0.0001 S/m
same,electrical conductivity,"313.15 K, m1 = 0.01044",0.1171 ± 0.0001 S/m
same,electrical conductivity,"313.15 K, m1 = 0.01102",0.1229 ± 0.0001 S/m
same,electrical conductivity,"313.15 K, m1 = 0.01167",0.1298 ± 0.0001 S/m
same,electrical conductivity,"313.15 K, m1 = 0.0124",0.1376 ± 0.0001 S/m
same,electrical conductivity,"313.15 K, m1 = 0.0128",0.1416 ± 0.0001 S/m
same,electrical conductivity,"313.15 K, m1 = 0.01322",0.1461 ± 0.0001 S/m
same,electrical conductivity,"313.15 K, m1 = 0.01368",0.1507 ± 0.0001 S/m
same,electrical conductivity,"313.15 K, m1 = 0.01417",0.1556 ± 0.0001 S/m
same,electrical conductivity,"313.15 K, m1 = 0.01469",0.1595 ± 0.0001 S/m
same,electrical conductivity,"313.15 K, m1 = 0.01526",0.1638 ± 0.0001 S/m
same,electrical conductivity,"313.15 K, m1 = 0.01587",0.1664 ± 0.0001 S/m
same,electrical conductivity,"313.15 K, m1 = 0.01653",0.1694 ± 0.0001 S/m
same,electrical conductivity,"313.15 K, m1 = 0.01725",0.1723 ± 0.0001 S/m
same,electrical conductivity,"313.15 K, m1 = 0.01803",0.1749 ± 0.0001 S/m
same,electrical conductivity,"313.15 K, m1 = 0.01889",0.1783 ± 0.0001 S/m
same,electrical conductivity,"313.15 K, m1 = 0.01984",0.1813 ± 0.0001 S/m
same,electrical conductivity,"318.15 K, m1 = 0.01042",0.127 ± 0.0001 S/m
same,electrical conductivity,"318.15 K, m1 = 0.01099",0.134 ± 0.0001 S/m
same,electrical conductivity,"318.15 K, m1 = 0.01164",0.1411 ± 0.0001 S/m
same,electrical conductivity,"318.15 K, m1 = 0.01237",0.1496 ± 0.0001 S/m
same,electrical conductivity,"318.15 K, m1 = 0.01277",0.1543 ± 0.0001 S/m
same,electrical conductivity,"318.15 K, m1 = 0.01319",0.1592 ± 0.0001 S/m
same,electrical conductivity,"318.15 K, m1 = 0.01365",0.1643 ± 0.0001 S/m
same,electrical conductivity,"318.15 K, m1 = 0.01414",0.1694 ± 0.0001 S/m
same,electrical conductivity,"318.15 K, m1 = 0.01466",0.174 ± 0.0001 S/m
same,electrical conductivity,"318.15 K, m1 = 0.01523",0.1791 ± 0.0001 S/m
same,electrical conductivity,"318.15 K, m1 = 0.01583",0.1838 ± 0.0001 S/m
same,electrical conductivity,"318.15 K, m1 = 0.01649",0.1877 ± 0.0001 S/m
same,electrical conductivity,"318.15 K, m1 = 0.01721",0.1908 ± 0.0001 S/m
same,electrical conductivity,"318.15 K, m1 = 0.018",0.1933 ± 0.0001 S/m
same,electrical conductivity,"318.15 K, m1 = 0.01885",0.1973 ± 0.0001 S/m
same,electrical conductivity,"318.15 K, m1 = 0.0198",0.2012 ± 0.0001 S/m
same,electrical conductivity,"323.15 K, m1 = 0.01039",0.1354 ± 0.0001 S/m
same,electrical conductivity,"323.15 K, m1 = 0.01097",0.1447 ± 0.0001 S/m
same,electrical conductivity,"323.15 K, m1 = 0.01162",0.1524 ± 0.0001 S/m
same,electrical conductivity,"323.15 K, m1 = 0.01234",0.1613 ± 0.0001 S/m
same,electrical conductivity,"323.15 K, m1 = 0.01274",0.1661 ± 0.0001 S/m
same,electrical conductivity,"323.15 K, m1 = 0.01317",0.1716 ± 0.0001 S/m
same,electrical conductivity,"323.15 K, m1 = 0.01362",0.1773 ± 0.0001 S/m
same,electrical conductivity,"323.15 K, m1 = 0.01411",0.1832 ± 0.0001 S/m
same,electrical conductivity,"323.15 K, m1 = 0.01463",0.1896 ± 0.0001 S/m
same,electrical conductivity,"323.15 K, m1 = 0.01519",0.1954 ± 0.0001 S/m
same,electrical conductivity,"323.15 K, m1 = 0.0158",0.2012 ± 0.0001 S/m
same,electrical conductivity,"323.15 K, m1 = 0.01646",0.2061 ± 0.0001 S/m
same,electrical conductivity,"323.15 K, m1 = 0.01717",0.21 ± 0.0001 S/m
same,electrical conductivity,"323.15 K, m1 = 0.01795",0.2148 ± 0.0001 S/m
same,electrical conductivity,"323.15 K, m1 = 0.01881",0.2187 ± 0.0001 S/m
same,electrical conductivity,"323.15 K, m1 = 0.01975",0.2216 ± 0.0001 S/m
